Assay results published in patent US20170246130A1, “4-HYDROXYBENZOHYDARZIDE-A NEW CLASS OF ANGIOGENIC ENZYME THYMIDINE PHOSPHORYLASE INHIBITORS” (priority 2016, published 2017).
Entries after “also recorded” stand apart in the source; their conditions may differ.

Legend:
[1] = biological target: T1, thymidine phosphorylase (E. coli) (Escherichia coli, UniProt P07650); test: Kinetic (mechanistic) studies on thymidine phosphorylase; type: biochemical; details: for Inhibition Type: Lineweaver-Burk plot; for Inhibition Type / Ki: thymidine as variable substrate; for apparent Vmax (Lineweaver-burk plot) / apparent km of the enzyme (Lineweaver-burk plot): absence and different concentrations of compound; for Ki: secondary re-plot, confirmed by Dixon plot, read-out: Ki (μM ± S.E.M.), dissociation constant
T1 construct: purchased Sigma Aldrich, USA; host or cells: Escherichia coli
Procedure: These studies disclose the mechanism of inhibitor binding to enzyme. Kinetic studies were carried out using thymidine as variable substrate. […] This was deduced from Lineweaver Burk plot. This compound therefore, interacted either with the amino acids of hydrophobic pocket of the enzyme or at allosteric site of the enzyme. […] Uncompetitive inhibitor causes decrease in both Km and Vmax values of the enzyme (Figure-6). […] Ki values were determined by secondary re-plot, and confirmed by Dixon plot.
Kinetic studies were carried out to find the mechanism of inhibitor action. Inhibitor could bind with enzyme in multiple ways such as in competitive, non-competitive, mixed or uncompetitive way. In kinetic assay, the enzyme (0.058 U/200 μL) was incubated with different concentrations of inhibitor for 10 min at 30° C. The reactions was then initiated by adding different concentrations (0.1875 mM-1.5 mM) of substrate (thymidine) and the resulting degradation of thymidine was measured continuously at 290 nm for 10 min on a ELISA plate reader. Every experiment was run in triplicate.
Line-weaver Burk plot was plotted to determine the type of inhibition. This was accomplished by plotting the reciprocal of the rate of reaction against the reciprocal of the substrate concentration. Ki values were determined by secondary re-plot, and reconfirmed by Dixon plot. The Ki was determined by non-linear regression equation.

[2] = test system: mouse fibroblast cell line (3T3); test: MTT anti-proliferative assay, 3T3 cells; type: cell-based; details: for inhibition of the proliferation of 3T3 cells (in words): in comparison to cyclohexamide; for IC50 ± SD (μM), 3T3 Cell Line: 48 h, 3T3 cells
Procedure: (§1) Compounds found to be active in inhibiting thymidine phosphorylase were then subjected to MTT proliferation assay. Rapid proliferation is the property inherent to cancerous/tumor cells. This assay was carried out to study the effect of these compounds on proliferation of various cell lines. The cell lines which we targeted were mouse fibroblast cell line (3T3), and prostate cancer line (PC3).
(§2) Anti-proliferative activity of active compounds was evaluated by using the standard MTT (3-[4,5-dimethylthiazole-2-yl]-2,5-diphenyl-tetrazolium bromide) colorimetric assay in 96-well plate (Dimas et al., 1998).
(§3) It is a colorimetric assay that measures the reduction of MTT, by mitochondrial enzyme i.e. succinate dehydrogenase. The MTT enters into the mitochondria of cell, where it is reduced to an insoluble formazan salt (FIG. 8). The extent of MTT reduction was measured at 540 nm. As reduction of MTT can only occur in metabolically active cells, the level of activity is actually a measure of the viability of the cells (Vega-Avila and Pugsley, 2011).
(§4) Mouse fibroblast cell line 3T3 was cultured in DMEM, supplemented with 5% of FBS, 100 IU/mL of penicillin and 100 μg/mL of streptomycin, and kept at 37° C. in 5% CO2 incubator. For the preparation of cell culture, 100 μL/well of cell solution (5×10^4 cells/mL) was added into 96-well plate. The plate was incubated for overnight, and fresh medium was added after the removal of old medium. The test compounds were also added in different concentrations into the plate and plate was again incubated for 48 h. After the completion of this incubation period, 200 μL MTT (0.5 mg/mL) was added and plate was again incubated for 4 h, after this final incubation 100 μL of DMSO was added to each well. The level of MTT reduction to formazan was evaluated by change in absorbance at 540 nm using a micro plate reader (Spectra Max plus, Molecular Devices, CA, USA).

[3] = biological target: T1, thymidine phosphorylase (E. coli); test: In-vitro thymidine phosphorylase inhibition assay (spectrophotometric); type: biochemical; details: recombinant E. coli TP, thymidine substrate, pH 7.0, 30° C., 290 nm; read-out: IC50 (μM ± S.E.M.), thymidine phosphorylase inhibition
Procedure: In vitro studies on thymidine phosphorylase were carried out in 96-well microtiter plate using Spectra Max-340 and Spectra Max-384 spectrophotometers (Molecular Devices, CA, USA). Deionized water used for buffer preparation was collected by Simplicity Water Purification System (Milipore).
Since human TP is not commercially available, we used commercially available recombinant E. coli TP (expressed in Escherichia coli) enzyme. Primary sequence of TP is mostly conserved throughout the evolution as mammalian TP share 39% sequence similarity with TP of E. coli. The mammalian enzyme also shared 65-70% similarity with the active site residues of E. coli TP enzyme (Bronckaers et al., 2009). Assay for thymidine phosphorylase inhibition was performed spectrophotometrically, following method of Bera et al. with some modifications (Bera et al., 2013).
The reaction catalyzed by thymidine phosphorylase involves reversible phosphorolysis of thymidine (FIG. 1), to thymine and 2-deoxyribose-1-phosphate (Bronckaers et al., 2009).
Reaction mixture contained 150 μL of potassium phosphate buffer (pH 7.0, 50 mM), 20 µL of enzyme (0.058 U/well) and 10 μL of test compound (0.5 mM in dimethylsulfoxide). The reaction mixture was incubated for 10 min at 30° C.
The enzyme inhibitory activities were calculated using the following formula:
Percent Inhibition=100−(O.D. of test/O.D. of control)×100
Where test is the enzyme activity with sample, and control is the enzyme activity without sample, and O.D. is optical density.
The IC50 of the compounds was calculated using EZ-Fit Enzyme Kinetic Program (Perrella Scientific Inc., Amhrest, U.S.A.).

[4] = test system: prostate cancer line (PC3); test: MTT anti-proliferative assay, PC3 cells; type: cell-based; details: for IC50: Homo sapiens, PC-3, PC3 cells, read-out: IC50 ± SD (μM), PC3 Cell Line; for inhibition of the proliferation of PC3 cancer cells (in words): in comparison of doxorubucin; for IC50 ± SD (μM), PC3 Cell Line: PC3 cells
Procedure: as §1, §2, §3, §4

T1 sequence (P07650 whole entry): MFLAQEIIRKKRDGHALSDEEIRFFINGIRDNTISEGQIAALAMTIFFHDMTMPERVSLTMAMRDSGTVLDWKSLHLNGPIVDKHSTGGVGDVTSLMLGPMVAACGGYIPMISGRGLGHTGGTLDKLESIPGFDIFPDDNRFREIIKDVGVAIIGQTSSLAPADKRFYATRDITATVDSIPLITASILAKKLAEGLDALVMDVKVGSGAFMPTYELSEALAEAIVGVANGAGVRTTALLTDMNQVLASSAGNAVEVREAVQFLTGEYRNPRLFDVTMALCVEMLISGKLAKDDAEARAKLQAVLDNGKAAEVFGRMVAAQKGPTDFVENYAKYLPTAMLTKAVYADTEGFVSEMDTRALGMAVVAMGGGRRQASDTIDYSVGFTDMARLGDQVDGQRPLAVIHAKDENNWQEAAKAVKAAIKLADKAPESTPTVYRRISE

| Structure (SMILES) | Inhibition Type [1] | apparent Vmax (Lineweaver-burk plot) [1] | apparent km of the enzyme (Lineweaver-burk plot) [1] | Ki [1] | inhibition of the proliferation of 3T3 cells (in words) [2] | IC50 [3] | IC50 [4] | inhibition of the proliferation of PC3 cancer cells (in words) [4] | IC50 ± SD (μM), PC3 Cell Line [4] | IC50 ± SD (μM), 3T3 Cell Line [2] |
| --- | --- | --- | --- | --- | --- | --- | --- | --- | --- | --- |
| Oc1nc(O)c2cc[nH]c2n1 [7-Deazaxanthine, 2,4-Dihydroxypyrrolo[2,3-d]pyrimidine, reference compound] | Non-Competitive |  |  |  |  |  |  |  |  |  |
| O=C(N/N=C/c1cc(Br)cc(Br)c1O)c1ccc(O)cc1 [Compound 24, 4-Hydroxy-N′-[(E)-(3,5-dibromo-2-hydroxyphenyl)methylidene]benzohydrazide] | Non-Competitive | decreased | remains unaffected | 1.75 ± 0.009 µM | significantly inhibit | 6.8 ± 0.7 µM | 8.34 ± 0.965 µM | significantly inhibit |  |  |
| O=C(N/N=C/c1ccc(O)c(O)c1)c1ccc(O)cc1 [Compound 5, 4-Hydroxy-N′-[(E)-(3,4-dihydroxyphenyl)methylidene]benzohydrazide] | un-competitive; also recorded: Uncompetitive |  |  | 176.65 ± 0.006 µM | significantly inhibit | 229.5 ± 0.4 µM |  |  | Inactive |  |
| CC/C(=N\NC(=O)c1ccc(O)cc1)c1cc(O)ccc1O [Compound 30, 4-Hydroxy-N′-[(E)-1-(2,5-dihydroxyphenyl)propylidene]benzohydrazide] | un-competitive; also recorded: Uncompetitive |  |  | 159.05 ± 0.002 µM | significantly inhibit | 173 ± 1.4 µM |  |  | Inactive |  |
| O=C(N/N=C/c1ccc(Cl)cc1)c1ccc(O)cc1 [Compound 12, 4-Hydroxy-N′-[(E)-(4-chlorophenyl)methylidene]benzohydrazide] | un-competitive; also recorded: Uncompetitive |  |  | 138 ± 0.009 µM |  | 159 ± 0.4 µM |  |  | Inactive | Inactive |
| O=C(N/N=C/c1ccc(Br)cc1)c1ccc(O)cc1 [Compound 14, 4-Hydroxy-N′-[(E)-(4-bromophenyl)methylidene]benzohydrazide] | un-competitive; also recorded: Uncompetitive |  |  | 80.5 ± 0.002 µM |  | 158 ± 1 µM |  |  | Inactive | Inactive |
| O=C(N/N=C/c1cccc(O)c1O)c1ccc(O)cc1 [Compound 4, 4-Hydroxy-N′-[(E)-(2,3-dihydroxyphenyl)methylidene]benzohydrazide] |  |  |  |  | significantly inhibit | 170.6 ± 0.5 µM | 7.61 ± 0.49 µM | significantly inhibit |  |  |
| C/C(=N\NC(=O)c1ccc(O)cc1)c1c(O)cccc1O [Compound 27, 4-Hydroxy-N′-[(E)-1-(2,6-dihydroxyphenyl)ethylidene]benzohydrazide] | un-competitive; also recorded: Uncompetitive | decreased | remains unaffected | 168 ± 0.003 µM | significantly inhibit | 176.9 ± 1.6 µM |  |  | Inactive |  |
